The text below walks through data of patent US9320736B2, “Zinc chelating agents for depleting XIAP and sensitizing tumor cells to apoptosis” (Institute for Cancer Research, priority 2012, dated 2016).

Molecules are shown by their SMILES. Entries after “also recorded” stand apart in the source; their conditions may differ.

The test system of data set [1] is XIAP. Kind of data set: XIAP depletion in PC-3 cells by Western blot / immunoblotting. The format is cell-based, human. The settings on record: for XIAP depletion (Western blot): chelator 50 μM, 4 hours, FIG. 3/4; for depletion of XIAP compared with TPEN: prostate cancer cells. The procedure: PC-3 cells were cultured in medium alone, or in the presence of PPIX (50 μM) for 4 hours, or 5-Ala (250 μM) for 24 hours. Expression of XIAP and GAPDH (control) was detected by immunoblotting with an antibody to XIAP or GADPH, respectively.
Cell Lines and Culture Conditions. A PC-3 castration-resistant prostate cancer cell line was obtained from the American Type and Culture Collection (Rockville, Md.). PC-3 cells were maintained in complete cell culture medium (RPMI 1640 medium (Bio-Whittaker, Walkersville, Md.) supplemented with 10% FCS (Hyclone, Logan, Utah), gentamicin (50 mg/L), sodium pyruvate (1 mM) and non-essential amino acids (0.1 mM)).
Analysis of XIAP Depletion in PC-3 Cell Line Following Administration of Heterocyclic Zn Chelators. PC-3 cells were cultured under three distinct conditions; medium alone, with administration of TPEN (8 μM) as a positive control for 2 hours, and with administration of an individual Zn chelators (MR) (50 μM) for 4 hours.
Western blot analysis was performed to assess for level of XIAP depletion. Whole cell lysates were prepared as described previously (Kolenko V et al. (1999) J. Immunol. 163: 590-8). Protein concentrations were measured with BCA protein assay reagents (Pierce, Rockford, Ill.). Equivalent amounts of proteins (20 μg) were mixed with an equal volume of 2× Laemmli sample buffer, boiled and resolved by electrophoresis in 10% sodium dodecyl sulfate-polyacrylamide gels (SDS-PAGE). The proteins were transferred from the gel to a nitrocellulose membrane using an electroblotting apparatus (Bio-Rad) (15 V, 3 mA/cm2 for 24 minutes).
Membranes were then incubated in a blocking solution containing 5% nonfat dry milk overnight to inhibit nonspecific binding. The membranes were then incubated with specific antibody (1-3 μg/ml) for 2 hours. After washing in TRIS/0.1% Tween 20 for 30 minutes, membranes were incubated for another 30 minutes with horseradish peroxidase-conjugated secondary antibody. The membranes were then washed and developed with enhanced chemiluminescence (ECL Western Blotting Kit, Amersham, Arlington Heights, Ill.).

The next data set has as its system PC-3 tumors. Kind of data set: PC-3 tumor growth in ectopic xenograft mouse model of prostate cancer. The format is in vivo. The settings on record: 5-Ala ip 10 mg/mouse daily combined with HGS-ETR1 iv 0.25 mg/mouse once a week, PC-3 tumors in male C.B17/Icr-scid mice, FIG. 2. The procedure:
PC-3 tumors were established in male C.B17/Icr-scid mice. When tumor volumes reach approximately 200 mm^3, the animals were grouped (n=5 for each group) and treated with saline (control), an ip injection of 5-Ala (10 mg/mouse, daily) and/or an iv injection of HGS-ETR1 (0.25 mg/mouse once a week).

Data set [2] can be described thus: Intravenous tolerability in C.B17/Icr-scid mice. The data set is classed as in vivo. To be noted: two 6 week-old male C.B17/Icr-scid mice, iv 100 μl at 15 mM. The procedure:
Animal Studies. Two 6 week-old male C.B17/Icr-scid mice were injected intravenously with 100 μl of MR13 chelator at final concentration of 15 mM.

A further data set relates to PC-3 cells. Kind of data set: TRAIL-mediated apoptosis in PC-3 cells (DNA fragmentation assay). The data set is classed as cell-based, human. To be noted: chelator combined with TRAIL, FIG. 4.
For data set [3], the system named is XIAP. To be noted: human prostate cancer cells; Makhov et al. 2008; cited from earlier work.
Data set [4] relates to cIAP1, cIAP2 and surviving. Kind of data set: Expression of other zinc-containing IAP family members in TPEN-treated cells. The format is cell-based. The source says: (§1) The inhibition of XIAP expression is selective, as TPEN has no effect on the expression levels of other zinc-containing members of IAP family, i.e., cIAP1, cIAP2 and surviving. As well, the XIAP mRNA level is not reduced in TPEN-treated cells. Therefore, zinc chelation by TPEN induces depletion of XIAP specifically at the protein level. […] Importantly, the sensitization to therapeutic agents is specific to malignant but not to benign cells. This cytotoxic specificity for malignant cells is consistent with experiments showing that XIAP is preferentially degraded in malignant but not in benign cells upon zinc chelation and stems from blunted regulation of zinc uptake transporters upon carcinogenesis.

The test system of the next data set is XIAP mRNA. Kind of data set: XIAP mRNA level in TPEN-treated cells. The format is cell-based.
Description: as §1

The subject of data set [5] is XIAP. Kind of data set: XIAP protein levels in xenograft animal model of human prostate cancer. The format is in vivo.
Description: as §1

For another data set, the system named is malignant cells. Kind of data set: Potentiation of therapeutic agents by TPEN in malignant cells. The format is cell-based. The settings on record: specific to malignant, not benign cells.
Description: as §1

`NCC(=O)CCC(=O)O` [5-Ala, 5-aminolevulinic acid, reference compound]: in the data set on XIAP [1] (PC-3 cells, 5-Ala 250 μM, 24 hours, FIG. 1), the “XIAP expression (immunoblot)” value was “reduces XIAP levels; also recorded: significantly reduced XIAP expression”. Also, the “tumor growth / antitumor effect” value is listed as “augments HGS-ETR1 the antitumor effect” in the data set on PC-3 tumors and “completely arrested tumor growth” with PC-3 tumors (listed as 5-ALA).
With `O=S(=O)(Nc1cccc2cccnc12)c1ccc(F)c(Cl)c1` [MR13], the “tolerability of intravenous administration” value in data set [2] is reported as “well tolerated”. Moreover, in the data set on PC-3 cells, the “promotion of TRAIL-mediated cell death / apoptotic response” value was “promoted TRAIL-mediated cell death”. The “XIAP depletion (Western blot)” value in the data set on XIAP [1] (PC-3 cells) is “completely depleted XIAP”. In the data set with XIAP [1], the “depletion of XIAP compared with TPEN” value was “at least as effectively as TPEN”.
For the compound `N#Cc1ccc(S(=O)(=O)Nc2cccc3cccnc23)cc1` [MR44], the “promotion of TRAIL-mediated cell death / apoptotic response” value in the data set with PC-3 cells is “promoted TRAIL-mediated cell death”. The “XIAP depletion (Western blot)” value in the data set on XIAP [1] (PC-3 cells) was “completely depleted XIAP”. Besides, the “depletion of XIAP compared with TPEN” value in the data set on XIAP [1] is “at least as effectively as TPEN”.
For the compound `O=S(=O)(Nc1ccccc1-c1nc2ccccc2[nH]1)c1ccc(F)cc1` [MR66], the “promotion of TRAIL-mediated cell death / apoptotic response” value in the data set on PC-3 cells is listed as “did not succeeded in producing an apoptotic response”. Besides, the “XIAP depletion (Western blot)” value with XIAP [1] (PC-3 cells) was “failed to induce XIAP depletion”.
The corresponding values for `O=S(=O)(Nc1ccccc1-c1nc2ccccc2[nH]1)c1c(F)cccc1F` [MR96] are “did not succeeded in producing an apoptotic response” and “failed to induce XIAP depletion”.
In the case of `c1ccc(CN(CCN(Cc2ccccn2)Cc2ccccn2)Cc2ccccn2)nc1` [TPEN, N,N,N′,N′-tetrakis(2-pyridylmethyl)-ethylenediamine], the “depletion of XIAP” value with XIAP [3] is “selective and rapid depletion; also recorded: rapidly depletes XIAP”. Moreover, the “effect on expression levels of other zinc-containing IAP family members” value in data set [4] is “no effect”. Besides, in the data set on XIAP mRNA, the “XIAP mRNA level” value is recorded as “not reduced”. The “XIAP protein levels in vivo” value in the data set with XIAP [5] was “rapid decrease of XIAP protein levels”. Further, the “potentiation of the action of HGS-ETR1 (mapatumumab) and docetaxel” value with malignant cells was “markedly potentiated”.
